Reference: PMC12697290, “Identification of novel PTP1B inhibitor for the treatment of LPS-induced myocardial apoptosis: machine learning based virtual screening and biological evaluation” (Journal of Enzyme Inhibition and Medicinal Chemistry, 2025)

How the values were obtained:
[1] = biological target: T1, PTP1B (Homo sapiens, UniProt P18031); experiment: pNPP hydrolysis, absorbance at […] nm; assay type: biochemical; parameters: gene PTPN1; isolated enzyme; settings: 5 mM pNPP, 50 mM Hepes, 1 mM DTT, pH 7.0, 37 °C; 10 μM compound
T1 sequence (P18031 1-435): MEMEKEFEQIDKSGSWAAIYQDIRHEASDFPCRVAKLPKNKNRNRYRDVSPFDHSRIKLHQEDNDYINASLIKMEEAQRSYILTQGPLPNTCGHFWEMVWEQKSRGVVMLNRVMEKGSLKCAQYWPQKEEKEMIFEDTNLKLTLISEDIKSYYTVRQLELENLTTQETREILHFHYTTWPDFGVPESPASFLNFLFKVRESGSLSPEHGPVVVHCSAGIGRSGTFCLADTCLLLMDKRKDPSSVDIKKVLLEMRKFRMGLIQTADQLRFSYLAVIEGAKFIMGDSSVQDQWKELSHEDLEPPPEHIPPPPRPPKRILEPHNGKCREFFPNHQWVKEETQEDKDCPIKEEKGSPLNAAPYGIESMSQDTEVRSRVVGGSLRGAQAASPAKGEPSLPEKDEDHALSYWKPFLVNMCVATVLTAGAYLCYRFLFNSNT

[2] = biological target: T2, TCPTP (Homo sapiens, UniProt P17706); experiment: phosphatase inhibition assay (protocol printed for PTP1B: pNPP, […] nm); assay type: biochemical; parameters: gene PTPN2; isolated enzyme
T2 sequence (P17706 1-415): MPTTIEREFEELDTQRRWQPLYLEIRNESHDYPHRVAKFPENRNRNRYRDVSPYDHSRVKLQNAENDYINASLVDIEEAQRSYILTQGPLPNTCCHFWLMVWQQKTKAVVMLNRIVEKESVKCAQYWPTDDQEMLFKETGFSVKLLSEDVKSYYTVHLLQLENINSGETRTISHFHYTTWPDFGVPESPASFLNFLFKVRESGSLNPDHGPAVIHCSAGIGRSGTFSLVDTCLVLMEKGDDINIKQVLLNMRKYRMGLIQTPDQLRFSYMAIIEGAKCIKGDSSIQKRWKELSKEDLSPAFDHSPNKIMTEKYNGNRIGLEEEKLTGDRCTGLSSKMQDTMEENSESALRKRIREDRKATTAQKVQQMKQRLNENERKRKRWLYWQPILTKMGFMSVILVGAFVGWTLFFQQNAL

[3] = biological target: T1, PTP1B; experiment: pNPP hydrolysis, absorbance at […] nm; assay type: biochemical; parameters: gene PTPN1; isolated enzyme
[4] = biological target: T1, PTP1B; experiment: cellular thermal shift assay (CETSA), Western blot; assay type: cell-based; parameters: gene PTPN1; endogenous protein in AC16 human cardiomyocytes, detected by Western blot (antibody 11334-1-AP); settings: AC16 cells
[5] = biological target: T2, TCPTP; experiment: cellular thermal shift assay (CETSA), Western blot; assay type: cell-based; parameters: gene PTPN2; endogenous protein in AC16 human cardiomyocytes, detected by Western blot (antibody 11214-1-AP); settings: AC16 cells
[6] = biological target: T3, acidic phosphatase (ACP1) (Homo sapiens, UniProt P24666); experiment: phosphatase inhibition assay (protocol printed for PTP1B: pNPP, […] nm); assay type: biochemical; settings: conditions not stated separately for ACP1
T3 construct: isolated enzyme
T3 sequence (P24666 2-158): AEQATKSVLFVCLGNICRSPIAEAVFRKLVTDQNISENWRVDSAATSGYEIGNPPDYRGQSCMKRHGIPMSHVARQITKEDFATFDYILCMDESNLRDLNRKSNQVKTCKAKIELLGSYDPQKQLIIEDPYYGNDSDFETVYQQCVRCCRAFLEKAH

Row | IC50 [2] [µM] | IC50 [3] [µM] | IC50 [6] [µM] | SMILES | inhibitory rate at 20 μM [1] | CETSA stabilisation [4] | CETSA stabilisation [5]
1 |  |  |  | CO/N=C(\C(=O)N[C@@H]1C(=O)N2C(C(=O)O)=C(CSc3nc(=O)c(O)nn3C)CS[C@H]12)c1csc(N)n1 [PI-1] | compounds PI-1, PI-2 and PI-7 displayed a moderate to potent inhibitory activity against PTP1B |  | 
2 | 5.9 ± 2.4 | 4.1 ± 0.3 | > 20 | N#C/C(=C\c1ccc(OCC(=O)O)cc1)c1nc2ccccc2[nH]1 [PI-2] | 95.6% | PI-2 could effectively enhance the PTP1B and TCPTP stability in vitro | PI-2 could effectively enhance the PTP1B and TCPTP stability in vitro
3 |  |  |  | O=C(O)COCC(=O)Nc1cc(SCC(O)CO)cc([N+](=O)[O-])c1 (centres unmarked) [PI-7] | compounds PI-1, PI-2 and PI-7 displayed a moderate to potent inhibitory activity against PTP1B |  | 
